Experimental findings from article PMC8895463 (Journal of Agricultural and Food Chemistry, 2022) are described below.

Each structure is given as a SMILES string.

The target in the test is T1, CYP3A4 (Homo sapiens, UniProt P08684).
T1 construct: recombinant; E. coli microsomes; with NADPH cytochrome P450 reductase (POR, P16435), coexpressed
As to the kind of experiment: fluorogenic Vivid BOMR substrate assay with recombinant CYP3A4/POR E. coli microsomes. In kind it is biochemical.

T1 sequence (P08684 13-503 S18F): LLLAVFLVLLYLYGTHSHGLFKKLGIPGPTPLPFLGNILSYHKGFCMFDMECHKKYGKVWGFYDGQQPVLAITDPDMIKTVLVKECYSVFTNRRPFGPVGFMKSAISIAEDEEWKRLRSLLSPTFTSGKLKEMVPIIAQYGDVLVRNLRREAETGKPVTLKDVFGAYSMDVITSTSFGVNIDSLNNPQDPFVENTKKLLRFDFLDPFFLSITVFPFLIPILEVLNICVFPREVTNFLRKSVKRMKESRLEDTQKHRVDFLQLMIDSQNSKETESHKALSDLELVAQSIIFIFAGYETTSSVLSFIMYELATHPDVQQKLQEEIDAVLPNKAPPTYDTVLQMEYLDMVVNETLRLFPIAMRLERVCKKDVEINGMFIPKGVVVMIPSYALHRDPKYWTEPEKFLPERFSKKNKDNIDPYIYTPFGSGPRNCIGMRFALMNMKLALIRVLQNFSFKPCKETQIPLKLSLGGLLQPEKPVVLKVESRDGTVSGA
T1 sequence (P16435 2-677, further chain): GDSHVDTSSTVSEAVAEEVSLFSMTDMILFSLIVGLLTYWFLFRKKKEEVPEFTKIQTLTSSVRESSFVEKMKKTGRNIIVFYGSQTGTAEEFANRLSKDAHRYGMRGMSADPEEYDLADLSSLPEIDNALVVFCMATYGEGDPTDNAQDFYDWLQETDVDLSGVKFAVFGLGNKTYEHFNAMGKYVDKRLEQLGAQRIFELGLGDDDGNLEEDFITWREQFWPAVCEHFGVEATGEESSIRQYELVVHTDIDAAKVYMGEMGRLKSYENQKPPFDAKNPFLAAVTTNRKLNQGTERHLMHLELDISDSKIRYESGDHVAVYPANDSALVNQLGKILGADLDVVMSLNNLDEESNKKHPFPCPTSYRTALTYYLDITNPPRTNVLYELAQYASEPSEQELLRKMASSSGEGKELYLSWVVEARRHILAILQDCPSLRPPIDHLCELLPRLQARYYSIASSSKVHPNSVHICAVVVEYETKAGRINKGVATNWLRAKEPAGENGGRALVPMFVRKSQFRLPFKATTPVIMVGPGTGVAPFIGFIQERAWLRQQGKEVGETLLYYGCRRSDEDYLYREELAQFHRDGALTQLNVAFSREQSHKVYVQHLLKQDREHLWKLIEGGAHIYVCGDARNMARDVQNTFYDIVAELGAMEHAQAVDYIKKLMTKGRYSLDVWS

`COc1ccc(-c2cc(=O)c3c(O)cc(O)cc3o2)cc1-c1c(O)cc(O)c2c(=O)cc(-c3ccc(O)cc3)oc12` [bilobetin]: the half-inhibitory concentration (IC50) (as a rule, the midpoint of a concentration-inhibition curve) came out at 12.9 µM.
